Results: ChEMBL document CHEMBL3885881, “DrugMatrix”

Species: Rattus norvegicus
Experiment: DrugMatrix - Regimen: Daily Repeat
Format: toxicity, organism-based, Sprague-Dawley
Design: regimen Daily Repeat, gender Male, age 6-8 weeks
Conditions: in vivo, po, route oral GAVAGE, vehicle 100 % SALINE; for ABSOLUTE BASOPHIL / ABSOLUTE EOSINOPHIL / ABSOLUTE LYMPHOCYTE / ABSOLUTE MONOCYTE / ABSOLUTE SEGMENTED NEUTROPHIL / BASOPHIL / EOSINOPHIL / ERYTHROCYTE COUNT / HEMATOCRIT / HEMOGLOBIN / LEUKOCYTE COUNT / LYMPHOCYTE / MEAN CORPUSCULAR HEMOGLOBIN / MEAN CORPUSCULAR HEMOGLOBIN CONCENTRATION / MONOCYTE / NEUTROPHIL / NUCLEATED RED BLOOD CELLS / PLATELET COUNT: tissue Blood; for ALANINE AMINOTRANSFERASE / ALBUMIN / ALKALINE PHOSPHATASE / ASPARTATE AMINOTRANSFERASE / BLOOD UREA NITROGEN / CARBON DIOXIDE / CHOLESTEROL / CREATINE PHOSPHOKINASE / CREATININE / GLUCOSE / LACTATE DEHYDROGENASE / LIPASE / POTASSIUM / SODIUM / TOTAL BILIRUBIN / TOTAL PROTEIN / URIC ACID: tissue Plasma
[1] = 0 mg/kg, 72 h, dose level Control, time 3 day
[2] = 0 mg/kg, 120 h, dose level Control, time 5 day
[3] = 330 mg/kg, 72 h, dose level Low, time 3 day

Nc1nc2c(ncn2COCCO)c(=O)[nH]1 [ACYCLOVIR]
ABSOLUTE BASOPHIL [1]: 0 CELLS/uL | ABSOLUTE EOSINOPHIL [1]: 37 CELLS/uL | ABSOLUTE LYMPHOCYTE [1]: 12359.33 CELLS/uL | ABSOLUTE MONOCYTE [1]: 122.67 CELLS/uL | ABSOLUTE SEGMENTED NEUTROPHIL [1]: 847.67 CELLS/uL | BASOPHIL [1]: 0% | EOSINOPHIL [1]: 0.33% | ERYTHROCYTE COUNT [1]: 5.75 x10E6/uL | HEMATOCRIT [1]: 36.08% | HEMOGLOBIN [1]: 14.07 G/DL | LEUKOCYTE COUNT [1]: 13.37 x10E3/uL | LYMPHOCYTE [1]: 92.5% | MEAN CORPUSCULAR HEMOGLOBIN [1]: 24.47 pg | MEAN CORPUSCULAR HEMOGLOBIN CONCENTRATION [1]: 38.98 G/DL | MONOCYTE [1]: 1% | NEUTROPHIL [1]: 6.17% | NUCLEATED RED BLOOD CELLS [1]: 0.17 /100WBC | PLATELET COUNT [1]: 1202.17 x10E3/uL | ALANINE AMINOTRANSFERASE [1]: 50.67 u/L | ALBUMIN [1]: 4.13 G/DL | ALKALINE PHOSPHATASE [1]: 356.33 u/L | ASPARTATE AMINOTRANSFERASE [1]: 78.17 u/L | BLOOD UREA NITROGEN [1]: 14.17 mg/dL | CARBON DIOXIDE [1]: 31.33 mmol/L | CHOLESTEROL [1]: 76.5 mg/dL | CREATINE PHOSPHOKINASE [1]: 248.33 u/L | CREATININE [1]: 0.2 mg/dL | GLUCOSE [1]: 144 mg/dL | LACTATE DEHYDROGENASE [1]: 107 u/L | LIPASE [1]: 9.83 u/L | POTASSIUM [1]: 6.75 MEQ/L | SODIUM [1]: 142 MEQ/L | TOTAL BILIRUBIN [1]: 0.18 mg/dL | TOTAL PROTEIN [1]: 5.98 G/DL | URIC ACID [1]: 1.42 mg/dL | ABSOLUTE BASOPHIL [2]: 0 CELLS/uL | ABSOLUTE EOSINOPHIL [2]: 0 CELLS/uL | ABSOLUTE LYMPHOCYTE [2]: 8681.17 CELLS/uL | ABSOLUTE MONOCYTE [2]: 79.83 CELLS/uL | ABSOLUTE SEGMENTED NEUTROPHIL [2]: 689 CELLS/uL | BASOPHIL [2]: 0% | EOSINOPHIL [2]: 0% | ERYTHROCYTE COUNT [2]: 5.49 x10E6/uL | HEMATOCRIT [2]: 33.55% | HEMOGLOBIN [2]: 13.1 G/DL | LEUKOCYTE COUNT [2]: 9.45 x10E3/uL | LYMPHOCYTE [2]: 92.33% | MEAN CORPUSCULAR HEMOGLOBIN [2]: 23.92 pg | MEAN CORPUSCULAR HEMOGLOBIN CONCENTRATION [2]: 39.07 G/DL | MONOCYTE [2]: 0.67% | NEUTROPHIL [2]: 7% | NUCLEATED RED BLOOD CELLS [2]: 0.17 /100WBC | PLATELET COUNT [2]: 1001.17 x10E3/uL | ALANINE AMINOTRANSFERASE [2]: 49.33 u/L | ALBUMIN [2]: 4.07 G/DL | ALKALINE PHOSPHATASE [2]: 300.33 u/L | ASPARTATE AMINOTRANSFERASE [2]: 83.5 u/L | BLOOD UREA NITROGEN [2]: 16 mg/dL | CARBON DIOXIDE [2]: 29.67 mmol/L | CHOLESTEROL [2]: 74.33 mg/dL | CREATINE PHOSPHOKINASE [2]: 489.67 u/L | CREATININE [2]: 0.35 mg/dL | GLUCOSE [2]: 151 mg/dL | LACTATE DEHYDROGENASE [2]: 133.67 u/L | LIPASE [2]: 11.17 u/L | POTASSIUM [2]: 5.5 MEQ/L | SODIUM [2]: 145.7 MEQ/L | TOTAL BILIRUBIN [2]: 0.2 mg/dL | TOTAL PROTEIN [2]: 6.05 G/DL | URIC ACID [2]: 0.68 mg/dL | ABSOLUTE BASOPHIL [3]: 0 CELLS/uL | ABSOLUTE EOSINOPHIL [3]: 0 CELLS/uL | ABSOLUTE LYMPHOCYTE [3]: 14421.67 CELLS/uL | ABSOLUTE MONOCYTE [3]: 118.67 CELLS/uL | ABSOLUTE SEGMENTED NEUTROPHIL [3]: 559.67 CELLS/uL | BASOPHIL [3]: 0% | EOSINOPHIL [3]: 0% | ERYTHROCYTE COUNT [3]: 5.8 x10E6/uL | HEMATOCRIT [3]: 35.43% | HEMOGLOBIN [3]: 13.97 G/DL | LEUKOCYTE COUNT [3]: 15.1 x10E3/uL | LYMPHOCYTE [3]: 95% | MEAN CORPUSCULAR HEMOGLOBIN [3]: 24.1 pg | MEAN CORPUSCULAR HEMOGLOBIN CONCENTRATION [3]: 39.4 G/DL | MONOCYTE [3]: 0.67% | NEUTROPHIL [3]: 4.33% | NUCLEATED RED BLOOD CELLS [3]: 0 /100WBC | PLATELET COUNT [3]: 1133.33 x10E3/uL | ALANINE AMINOTRANSFERASE [3]: 50 u/L | ALBUMIN [3]: 4.3 G/DL | ALKALINE PHOSPHATASE [3]: 334 u/L | ASPARTATE AMINOTRANSFERASE [3]: 88.67 u/L | BLOOD UREA NITROGEN [3]: 17.33 mg/dL | CARBON DIOXIDE [3]: 25.67 mmol/L | CHOLESTEROL [3]: 70 mg/dL | CREATINE PHOSPHOKINASE [3]: 328.33 u/L | CREATININE [3]: 0.34 mg/dL | GLUCOSE [3]: 183 mg/dL | LACTATE DEHYDROGENASE [3]: 177.67 u/L | LIPASE [3]: 10.33 u/L | POTASSIUM [3]: 5.7 MEQ/L | SODIUM [3]: 144.1 MEQ/L | TOTAL BILIRUBIN [3]: 0.13 mg/dL | TOTAL PROTEIN [3]: 6.17 G/DL | URIC ACID [3]: 2.2 mg/dL
